Reference: article PMC9328652, “A novel class of fast‐acting antimalarial agents: Substituted 15‐membered azalides” (British Journal of Pharmacology, 2020)
pIC50: −log10 of the molar value. Values after ≈ are worked out from the molar mass of the structure shown. Where two headings read alike, the source gives them in different places.

Columns and labels:
[1] = system: Plasmodium falciparum K1 (CQ,PY); test: [3H]hypoxanthine incorporation antimalarial assay, strain K1; format: cell-based
Method: (§1) The activity of the test compounds against P. falciparum in vitro was determined using the tritiated hypoxanthine incorporation assay of Desjardins et al. and additionally modified by Milhous and Chulay (Chulay, Haynes, & Diggs, [1983]; Milhous, Weatherly, Bowdre, & Desjardins, [1985]).
(§2) Compounds were dissolved in DMSO and subsequently diluted in the culture medium (RPMI 1640) supplemented with 10% v/v human plasma. Serial 1:2 drug dilutions were prepared in triplicate in microtitre plates. Culture medium supplemented with 10% v/v human plasma and type A Rhesus positive human erythrocytes infected with P. falciparum strains was added to yield a haematocrit of 3% and a parasitaemia of 0.25–0.55%. The plates were incubated at 37°C in a modular incubator flushed with a mixture of 5% oxygen, 3% carbon dioxide, and 92% nitrogen for 48 h, and then [^3H]hypoxanthine was added to give a final concentration of 12.5–16 μCi·ml^−1. After incubation for additional 24 h, particulate matter was harvested on fibreglass strips and hypoxanthine incorporation determined by scintillation spectrophotometry. […] Delayed death experiments were performed by this standard method but extending the incubation time with the drug up to 96 h.

[2] = system: Plasmodium falciparum FCR3 (CQ,AT); test: [3H]hypoxanthine incorporation antimalarial assay, strain FCR3; format: cell-based; details: FCR3, 72 h, read-out: IC50 FCR3 (CQ,AT)
Method: as §1, §2

[3] = system: Plasmodium falciparum T9/94 (CQ); test: [3H]hypoxanthine incorporation antimalarial assay, strain T9/94; format: cell-based; details: 72 h, read-out: IC50 T9/94 (CQ)
Method: as §1, §2

M. catarrhalis ATCC23246 = test: Antibacterial screen, broth microdilution; format: cell-based, Moraxella catarrhalis; details: Moraxella catarrhalis, ATCC23246; broth microdilution
Method: Antibacterial activity of compounds was determined by a standard broth microdilution method (Clinical Laboratory Standard Institute CLSI, [2009]), except that for Streptococcus strains lysed blood was substituted with 5% horse serum in the testing medium. […] The activities are expressed as minimum inhibitory concentrations (MICs) in units of μg·ml^−1. […] The organisms tested represented macrolide sensitive Gram‐positive pathogens that are mainly targeted by macrolide antibiotics. Tested streptococci were clinical isolates Streptococcus pneumoniae SP030 and Streptococcus pyogenes 3565 from internal strain collection, and other strains were obtained from ATCC bioresource centre, Staphylococcus aureus ATCC13709, Haemophilus influenzae ATCC49247, and Moraxella catarrhalis ATCC23246. Double dilutions of tested compounds were prepared using TECAN Genesis 150. Bacteria were grown on appropriate agar plates (Becton Dickinson, USA)—Columbia agar with 5% sheep blood for streptococci and M. catarrhalis, Mueller‐Hinton chocolate agar for H. influenzae , and Mueller‐Hinton agar for staphylococci.

[4] = Pharmacokinetic studies in CD-1 mice; details: for B/P (ratio of AUC0−t in whole blood and plasma): after oral administration; for DNAUCPO (AUC0−t divided by the dose) / Cmax: blood; for DNAUCPO (AUC0−t divided by the dose): oral gavage 12.5 mg·kg^−1; for half-life / Vd / clearance / bioavailability / AUC(0-t) / Cmax: Swiss albino CD-1, mouse; for Vd / clearance: iv; for AUC(0-t): AUC0-t; for AUC(0-t) / Cmax: oral gavage 12.5 mg/kg; for Cmax: C max
Method: For pharmacokinetic (PK) studies in mice, animals were dosed either by intravenous (i.v.) or oral (p.o.) route. For i.v. administration, the dosing volume was 10 ml·kg^−1 for a total dose of 12.5 mg·kg^−1, and for p.o. administration, the dosing volume was 20 ml·kg^−1 for a total dose of 12.5 mg·kg^−1. Dosing solutions were prepared in 100% saline ([…]) both for i.v. and p.o. administration for all compounds with the exception of compound 4 for which dosing solutions were prepared in PBS with 5% Cremophor‐EL (Fluka). Following i.v. dosing, blood samples were collected at 5 and 15 min, 1, 3, 6, 8, 24, and 48 h post‐dose. Following oral dosing, blood samples were collected at 15 and 30 min, 1, 2, 4, 6, 8, 24, and 48 h post‐dose.
For studies performed in Swiss albino CD‐1 mice (Harlan Laboratories, Spain), in order to obtain simultaneous blood and plasma profiles and blood‐to‐plasma (B/P) ratio, PK was performed using terminal sampling of N = 3 animals per time point and data evaluated using composite analysis. For studies performed in P. falciparum infected and non‐infected NODscidβ2m^−/− mice (Charles River Laboratories, France), only whole blood was obtained by serial sampling of N = 3 animals using tail puncture.
For analysis of whole blood samples, 25 μl of fresh blood were mixed with 25 μl of saponin solution (0.1% in water) and immediately frozen on dry ice. Plasma was obtained by centrifugation of fresh blood at 2,500 g for 10 min. Both blood and plasma samples were stored frozen at −80°C until analysis.
Diluted blood and plasma samples were processed under standard liquid–liquid extraction procedures using acetonitrile containing internal standard (clarithromycin, 100 ng·ml^−1) and analysed by LC–MS/MS in positive ion mode with electrospray. Samples were assayed for parent compound using a Sciex API 4000 and Sciex API‐2000 Triple Quadrupole Mass Spectrometer (Sciex, Division of MDS Inc., Toronto, Canada), against a series of matrix matched calibration curve standards, using multiple reaction monitoring (MRM) at the specific transitions for each compound. Non‐compartmental analysis was performed using WinNonlin, version 4.1 (Pharsight, Mountain View, CA), and the main pharmacokinetic parameters were estimated.

[5] = system: P. falciparum 3D7^0087/N9; test: P. falciparum murine model (humanized mice), 4-day test; format: in vivo, Plasmodium falciparum; details: for ED90: oral QD for 4 days, parasitaemia at day 7, humanized mice
Method: The in vivo efficacy evaluation of the compounds was performed using a P. falciparum murine model of malaria in non‐myelodepleted NOD. Cg‐Prkdc^ scid –β2m^ tm1Unc ‐scid IL2R_null (NODscidβ2m^−/−) mice engrafted with human erythrocytes as described previously (Angulo‐Barturen et al., [2008]; Jimenez‐Diaz et al., [2005]; Jimenez‐Diaz et al., [2009]; Jimenez‐Diaz et al., [2009]), as this model enables testing of P. falciparum strains with high infectious burden. Briefly, groups of three mice engrafted with human erythrocytes were infected with 20 × 10^6 of P. falciparum 3D7^0087/N9‐infected erythrocytes/mouse by intravenous route. The mice were randomly assigned to their corresponding experimental groups. The treatment of oral doses QD for 4 days started at day 3 after infection. Parasitaemia was measured at days 3, 5, and 7 post‐infection. The therapeutic efficacy was expressed as the dose (mg·kg^−1) that reduced parasitaemia in peripheral blood of mice at day 7 after infection by 90% (ED90) with respect to vehicle‐treated mice. Chloroquine was included as quality control for each in vivo assay. Efficacy is expressed as the daily dose (ED90), or equivalent exposure (AUCED90), administered to mice necessary to reduce parasitaemia at day 7 by 90% with respect to vehicle‐treated mice. The ED90 is estimated by fitting a four‐decade logistic equation for the log10 [parasitaemia at day 7] versus the log10 [dose] using GraphPad Prism 5.01 (GraphPad Software Inc., San Diego, CA).

[6] = K1, 72 h, read-out: IC50 K1 (CQ,PY)
[7] = whole blood, intravenous, 12.5 mg/kg
[8] = whole blood, po, 12.5 mg/kg, F, CD‐1 mice, 12.5 mg·kg^−1 i.v. and p.o.
[9] = whole blood, po, 12.5 mg/kg, fasted CD-1 mice
[10] = whole blood, po, 12.5 mg/kg, fed CD-1 mice

| Compound | pIC50 [1, 6] | pIC50 [2] | pIC50 [3] | MIC (M. catarrhalis ATCC23246) [µg/mL] | B/P (ratio of AUC0−t in whole blood and plasma) ([4]; CD‐1 mice) | DNAUCPO (AUC0−t divided by the dose) ([4]; CD‐1 mice) [ng·kg·h/mL/mg] | half-life [4, 7] [h] | Vd ([4]; whole blood, 12.5 mg/kg) [L/kg] | clearance ([4]; whole blood, 12.5 mg/kg) [mL/min/kg] | bioavailability [4, 8] [%] | ED90 [5] [mg/kg] | other results |
| --- | --- | --- | --- | --- | --- | --- | --- | --- | --- | --- | --- | --- |
| CC[C@H]1OC(=O)[C@H](C)[C@@H](O)[C@H](C)[C@@H](O[C@@H]2O[C@H](C)C[C@H](N(C)C)[C@H]2OCCCNc2ccnc3ccccc23)[C@](C)(O)C[C@@H](C)CN[C@H](C)[C@@H](O)[C@]1(C)O [Compound 3] | 7.62 | 7.66 | 7.68 | > 64 | 3.7 | 362 | 15.6 | 13.4 | 10.1 | 26 | 23.9 | – |
| CC[C@H]1OC(=O)[C@H](C)[C@@H](O[C@H]2C[C@@](C)(OC)[C@@H](O)[C@H](C)O2)[C@H](C)[C@@H](O[C@@H]2O[C@H](C)C[C@H](N(C)C)[C@H]2O)[C@](C)(O)C[C@@H](C)CN(C)[C@H](C)[C@@H](O)[C@]1(C)O [Azithromycin, reference compound] | – | 5.59 | 5.56 | ≤ 0.125 | 2.4 | 267 | – | 29.2 | 40.2 | 61 | > 200 | pIC50 ([1]; K1, 72 h of incubation, N = 3, read-out: IC50 K1 (CQ,PY)): 5.56; half-life ([4]; in vivo, 12.5 mg/kg): 10.1 h |
| CC[C@H]1OC(=O)[C@H](C)[C@@H](O[C@H]2C[C@@](C)(OC)[C@@H](O)[C@H](C)O2)[C@H](C)[C@@H](O[C@@H]2O[C@H](C)C[C@H](N(C)C)[C@H]2O)[C@](C)(O)C[C@@H](C)CN(CCCNc2ccnc3cc(Cl)ccc23)[C@H](C)[C@@H](O)[C@]1(C)O [Compound 1] | 7.64 | 7.66 | 7.89 | 2 (≈ 2.1 µM) | 14.0 | 253 | 28.2 | 4.42 | 1.95 | 4 | – | bioavailability ([4]; whole blood, oral, 12.5 mg·kg^−1, F, fasted CD-1 mice, ratio of AUC0-t after PO and IV): 11.3%; bioavailability ([4]; whole blood, oral, 12.5 mg·kg^−1, F, fed CD-1 mice, ratio of AUC0-t after PO and IV): 3.75%; AUC(0-t) [4, 9]: 9510 ng·h/mL; AUC(0-t) [4, 10]: 3160 ng·h/mL; Cmax [4, 9]: 582 ng/mL; Cmax [4, 10]: 162 ng/mL; increase in oral F in fasted versus fed mice ([4]; fed versus fasted mice): threefold increase; day of follow‐up up to which parasitaemia remained undetectable / parasite growth suppressed ([5]; humanized mice, oral 4‐day treatment): ≥ 24 days |
